The source of these data is patent publication US20110123482A1, “Methods of Treating Neurological Autoimmune Disorders with Cyclophosphamide” (The Johns Hopkins University, priority 2007, published 2011).

In test [1] the test system is chronic relapsing experimental autoimmune encephalomyelitis (R-EAE) in SJL/J mice. The following applies: mouse, in vivo.
Test [2] deals with RRMS. The note with it: cited from earlier work.
The test system of test [3] is class II MHC molecules. The note with it: cited from earlier work.

Like-named read-outs stand apart in the source and are kept apart here.

For `O=P1(N(CCCl)CCCl)NCCCO1` (stereo not drawn) [CPA, N,N-bis(2-chloroethyl)-1,3,2-oxazaphosphinan-2-amine 2-oxide], in test [1], the “rate of induced relapse with PLP reimmunization following CPA treatment” value was determined as 70% and the “spontaneous relapse rate of RR-EAE following CPA treatment” value is 30%. In addition, the “cessation of EAE activity, share of animals” value in test [1] (200 mg/kg) was 95%.

In the case of glatiramer acetate, in test [1], the induced relapse rate is recorded as 10%, the “rate of cessation of EAE activity by CPA” value is recorded as 95% and the spontaneous relapse rate stood at 2%. The “time of treatment to reduce the number of lesions and relapses” value in test [2] (20 mg GA, compared to placebo controls) is recorded as “approximately 3 months”. Further, in test [2] (40 mg daily, compared to controls), the “time of treatment to reduce the number of lesions and relapses” value is given as “less than 3 months”. The “binding affinity to class II MHC molecules” value in test [3] was “binds with high affinity”.
